Reference: patent US6472158B1, “Ustilipides, method for the production and the use thereof” (Aventis Pharma Deutschland GmbH, priority 1998, dated 2002)

Columns and labels:
[1] = Physicochemical properties (solubility, stability); details: for solubility: alcohols and other organic solvents
Source text: The physicochemical and spectroscopic properties of the ustilipides can be summarized as follows: […]

[2] = system: human erythrocytes; assay: In vitro hemolysis; format: cell-based
Description: On use of the schizonellins, a fatal 100% hemolysis occurs at concentrations as low as 10 and 30 μg/ml respectively. Determination of the hemolytic effect of ustilipides A, B and C gave the following results, the hemolysis being measured by the percentage of ruptured cells.
The hemolysis experiments were carried out with human erythrocytes.
Venous blood freshly taken from humans, rhesus monkeys or beagle dogs is used to measure the hemolytic activity. The blood is collected in heparinized tubes and distributed in aliquots of 200 μl to 12 polyethylene tubes. One aliquot is mixed with 200 μl of distilled water and serves as 100% standard, and another is mixed with 200 μl of physiological saline (0.9% NaCl) (0% standard). 200 μl portions of substance dilutions in physiological saline to […] are distributed to the other tubes. All the tubes are cautiously agitated and then incubated at 37° C. for 3 hours. The 100% standard is then made up with 5 ml of distilled water, and the other tubes are each made up with 5 ml of physiological saline, and are centrifuged at 700 g for 5 minutes.
The hemolysis is determined by measuring the absorption of the supernatant in a spectrophotometer at a wavelength of 540 nm. The absorption of the standard with complete hemolysis is set at 100%. The absorption of the test product dilutions and of the 0% standard are measured and stated as a percentage of the maximum inducible hemolysis.

[3] = molecular target: T1, Dopamine D2 receptor (D2 long) (Homo sapiens, UniProt P14416); assay: Dopamine D2 receptor binding assay ([N-methyl-3H]spiroperidol, CHO membranes); details: human D2 long receptor in CHO membranes, room temperature, 60 minutes
T1 construct: expressed in transfected cells
T1 sequence (P14416 whole entry): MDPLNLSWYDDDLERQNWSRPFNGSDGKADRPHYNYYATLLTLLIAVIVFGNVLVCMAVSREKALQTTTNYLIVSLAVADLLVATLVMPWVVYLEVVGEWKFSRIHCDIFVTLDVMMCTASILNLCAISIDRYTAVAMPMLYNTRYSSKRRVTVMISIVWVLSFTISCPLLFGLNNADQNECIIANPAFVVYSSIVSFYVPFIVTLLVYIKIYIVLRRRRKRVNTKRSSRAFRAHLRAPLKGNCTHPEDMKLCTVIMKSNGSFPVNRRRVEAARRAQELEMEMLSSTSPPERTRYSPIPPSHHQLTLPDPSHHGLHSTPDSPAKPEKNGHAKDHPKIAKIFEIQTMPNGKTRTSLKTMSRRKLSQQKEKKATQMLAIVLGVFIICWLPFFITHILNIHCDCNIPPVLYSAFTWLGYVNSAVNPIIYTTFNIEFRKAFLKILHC
Description: (§1) The ustilipides effectively antagonize dopamine D2 and D3 receptors. One measure of their activity is the IC50 which indicates the concentration of inhibitor at which the rate of the normal enzymatic reaction (or receptor antagonism) is reduced by 50%.
(§2) The D3 and D2 long genes were isolated from a human cDNA library and stably transfected into CHO cells (CHO=Chinese hamster ovary). Membrane fractions are obtained from single clones with high-level expression. The binding assay is carried out in 96-well plates at room temperature for 60 minutes. The reaction mixture contains 50 μl of [N-methyl-^3H]spiroperidol, 50 μl of test substance or S(−)-eticlopride made for nonspecific binding and 100 μl of membrane. The assay is stopped by rapid filtration through a GF/B filter into a Skatron 96 cell harvester. The filters are cut up and placed in containers (T trays, Wallac), and the radioactivity is determined in a scintillation counter.
(§3) The specific binding is defined as the difference between the total binding and the binding in the presence of 10 μM S(−)-eticlopride. The total binding corresponds approximately to 10% of the counts of the ligands employed in total.
(§4) The inhibition of the binding by a test substance is calculated by correlation with the control reaction. Analysis of the data took place using the LIGAND software package of McPherson, Munson & Rodbard, Elsevier-BIOSOFT.

[4] = molecular target: T2, Dopamine D3 receptor (Homo sapiens, UniProt P35462); assay: Dopamine D3 receptor binding assay ([N-methyl-3H]spiroperidol, CHO membranes); details: human D3 receptor in CHO membranes, room temperature, 60 minutes
T2 construct: expressed in transfected cells
T2 sequence (P35462 whole entry): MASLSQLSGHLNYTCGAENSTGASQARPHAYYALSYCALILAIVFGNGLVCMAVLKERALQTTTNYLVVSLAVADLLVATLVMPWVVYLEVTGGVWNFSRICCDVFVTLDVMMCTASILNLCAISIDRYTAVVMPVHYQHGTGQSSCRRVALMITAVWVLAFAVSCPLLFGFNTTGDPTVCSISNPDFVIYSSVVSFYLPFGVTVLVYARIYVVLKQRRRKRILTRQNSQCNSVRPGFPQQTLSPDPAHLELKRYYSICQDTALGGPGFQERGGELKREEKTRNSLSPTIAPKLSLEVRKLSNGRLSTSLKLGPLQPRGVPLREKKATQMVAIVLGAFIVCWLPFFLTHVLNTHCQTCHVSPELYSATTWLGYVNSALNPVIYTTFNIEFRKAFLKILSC
Description: as §1, §2, §3, §4

[5] = neutral and weakly acidic medium

SMILES | solubility [1] | stability ([1]; alkaline solution) | stability [1, 5] | hemolysis (percentage of ruptured cells) ([2]; 8 μg/ml) [%] | hemolysis (percentage of ruptured cells) ([2]; 16 μg/ml) [%] | hemolysis (percentage of ruptured cells) ([2]; 32 μg/ml) [%] | hemolysis (percentage of ruptured cells) ([2]; 62.5 μg/ml) [%] | hemolysis (percentage of ruptured cells) ([2]; 125 μg/ml) [%] | IC50 [3] [µM] | IC50 [4] [µM]
CCCCCCCCCCCCCCCC(=O)O[C@@H]1[C@H](OC(=O)CCCCC)[C@H](OC[C@@H](O)[C@@H](O)CO)O[C@H](COC(C)=O)[C@H]1OC(C)=O [Ustilipide A] | Colorless oil which is soluble in alcohols and other | medium but unstable in alkaline solution. | organic solvents. Stable in neutral and weakly acidic | 0.0 | 0.0 | 0.0 | 0.0 | 0.1 | 42.6 | 7.09
CCCCCCCCCCCCCCCC(=O)O[C@@H]1[C@H](OC(=O)CCC)[C@H](OC[C@@H](O)[C@@H](O)CO)O[C@H](COC(C)=O)[C@H]1OC(C)=O [Ustilipide B] | Colorless oil which is soluble in alcohols and other | medium but unstable in alkaline solution. | organic solvents. Stable in neutral and weakly acidic | 0.0 | 0.0 | 0.0 | 0.0 | 0.4 | 23.6 | 10.3
CCCCCCCCCCCCCCCC(=O)O[C@@H]1[C@H](OC(=O)C(C)C)[C@H](OC[C@@H](O)[C@@H](O)CO)O[C@H](CO)[C@H]1OC(C)=O [Ustilipide C] | Colorless oil which is soluble in alcohols and other | medium but unstable in alkaline solution. | organic solvents. Stable in neutral and weakly acidic | 0.0 | 0.4 | 0.4 | 0.5 | 0.8 | 14.2 | 18.9
